We go through 1 molecule from US20160089434A1, “COMBINATIONS OF AN ANTI-PD-L1 ANTIBODY AND A MEK INHIBITOR AND/OR A BRAF INHIBITOR” (NOVARTIS AG, priority 2013, published 2016).

The subject of experiment [1] is CT26 mouse colon carcinoma cells. Briefly: Cell growth inhibition of CT26 cells, CellTiter-Glo (CTG) assay. The experiment is classed as cell-based. The settings on record: 72 h, CT26 cells (KRAS G12D, MAPK1 and MET amplifications), 3 days, 10% FBS, read-out: IC50 value in cell proliferation inhibition. The protocol:
CT26 mouse colon carcinoma cells from American Type Culture Collection (ATCC, cat#CRL-2638, lot#59227052) were cultured in RPMI with 10% fetal bovine serum (FBS) media. Cell growth inhibition was determined via CellTiter-Glo® (CTG) assay (Promega) according to the manufacturer's protocol. Approximately 24 hours after plating, cells were exposed to Compound A with three-fold serial dilutions. Cells were incubated with the compound in culture medium containing 10% FBS for 3 days. IC50 values were interpolated using the method of Levenberg & Marquardt and the equation: y=Vmax−{1−[xn/(Kn+xn)]}, where ‘K’ is equal to IC50 (Mager M E, Data Analysis in Biochemistry and Biophysics. New York: Academic Press. 1972).

The test system of another experiment is CT26 tumors. Briefly: CT-26 murine carcinoma syngeneic mouse model. The settings on record: mono-therapy at 1 mg/kg orally once a day, after 18 days of treatment. The experiment is classed as in vivo, BALB/C mice. The protocol:
Female BALB/C mice (Charles River) were used. The animals received food and water ad libitum and were housed in compliance normal standard of care for Laboratory Animals. Tumors were established by subcutaneously implanting 5×10^4 CT26 cells in suspension into the right flanks of mice. Tumor […] were calculated using the equation (l×w^2)/2, where l and w refer to the larger and smaller dimensions collected at each measurement. Treatments began at day 11 after cell implantation with tumor size around 40-100 mm^3. Mice (n=10/group) were treated with Compound A at 1 mg/kg, orally once a day for 21 days, or anti-mouse antibodies, rat-IgG2a and αPD-L1 (10F.9G2 clone) at 10 mg/kg, intraperitoneally (i.p.) twice weekly for three weeks. Tumors were monitored and each animal was euthanized when it's tumor reached the endpoint volume of 2000 mm^3, ulcerated, or on the final day (Day 21), whichever came first. Percent tumor growth inhibition (% TGI) was defined as the difference between the mean tumor volume (MTV) of the designated control group and the MTV of the drug-treated group, expressed as a percentage of the MTV of the designated control group: % TGI=[1−(MTVdrug-treated/MTVcontrol)]×100.
Log-transformed tumor volume was analyzed using ANOVA, fitting a term for treatment. Differences between fitted treatment means were then calculated with associated raw p-values. […]

For the next experiment, the system named is pERK1/2 (T202/Y204). Kind of experiment: MAPK signaling inhibition in CT26 cells by western blot (pERK). The settings on record: 24 hours. Type of experiment: cell-based, mouse. As to the method:
MAPK signaling inhibition by Compound A from CT 26 cells were determined by western blot analysis. CT26 cells were treated with Compound A in culture medium containing 10% FBS for 24 hours. Proteins were extracted for immunoblotting with anti-ERK1/2 and pERK1/2 (T202/Y204) from Santa Cruz Biotechnology. The membranes were developed with Odyssey Infrared Imaging System (LI-COR Biosciences).
For orientation: Immunoblotting shows a protein as a band on a membrane.

For `CC(=O)Nc1cccc(-n2c(=O)n(C3CC3)c(=O)c3c(Nc4ccc(I)cc4F)n(C)c(=O)c(C)c32)c1` [Compound A, N-{3-[3-cyclopropyl-5-(2-fluoro-4-iodo-phenylamino)6,8-dimethyl-2,4,7-trioxo-3,4,6,7-tetrahydro-2H-pyrido[4,3-d]pyrimidin-1-yl]phenyl}acetamide], the IC50 in experiment [1] was determined as 0.02 µM. Further, the “TGI (tumor growth inhibition)” value with CT26 tumors is on record as 61%. In the experiment with pERK1/2 (T202/Y204), the “MAPK signaling inhibition measured by pERK” value was “dose dependent MAPK signaling inhibition”.
